“Also recorded” adds a separate entry of the source. Marks after values point to notes of the source that are not given here.
Columns and labels:
[1] = Plasma pharmacokinetics of GSPE phenolic constituents after intragastric gavage; type: in vivo, Sprague Dawley rats; conditions: for Increase of total (free plus methylated) C AUC0-8h: rats; for Detection in rat plasma: acute oral administration of GSPE; for AUC(0-8h) / Cmax / Tmax: rat plasma, mean ± SEM
[2] = Brain deposition of GSPE phenolic constituents; type: in vivo, Sprague Dawley rats; conditions: for Detection in brain tissue: rats; for Concentration in brain tissue: rats administered GSPE for 10 days (dose escalation, last dose 150 mg/kg BW), perfused brain, mean ± SEM
[3] = acute and single dose studies; cited from earlier work
[4] = humans; four week multiple dose administration; cited from earlier work
[5] = single intragastric gavage 50 mg GSE/kg BW
[6] = single intragastric gavage 100 mg GSE/kg BW
[7] = single intragastric gavage 150 mg GSE/kg BW
[8] = 10 day repeated GSPE pretreatment prior to pharmacokinetic dose
[9] = single acute GSPE dose (50, 100 or 150 mg/kg BW)

Increase of total (free plus methylated) C AUC0-8h ([1]; 50 to 100 mg/kg BW dose) | Increase of total (free plus methylated) C AUC0-8h ([1]; 100 to 150 mg/kg BW dose) | Detection in rat plasma [1] | AUC(0-8h) [1, 5] | Cmax [1, 5] | Tmax [1, 5] | AUC(0-8h) [1, 6] | Cmax [1, 6] | Tmax [1, 6] | AUC(0-8h) [1, 7] | Cmax [1, 7] | Tmax [1, 7] | Detection in brain tissue [2, 8] | Concentration in brain tissue [2] | Detection in brain tissue [2, 9] | Structure (SMILES) | Bioavailability [3] | Improvement of bioavailability by multiple dosing [4]
78% | 106% | detected | 398.5 ± 80.5 ^a ng/mL*h | 207.5 ± 34.8 ^a ng/mL | 1.7 ± 0.7 h | 606.1 ± 64.6 ^a ng/mL*h | 289.9 ± 37.2 ^a ng/mL | 1.8 ± 0.2 h | 1168.2 ± 143.6 ^b ng/mL*h | 442.4 ± 49.1 ^b ng/mL | 1.1 ± 0.2 h | detectable levels | 576.7 ± 227.7 pg/g | not detectable | Oc1cc(O)c2c(c1)OC(c1ccc(O)c(O)c1)C(O)C2 (single isomer, unassigned; (+)) [C, (+)-catechin] | < 2 % of oral dose | –
– | – | detected | – | – | – | – | – | – | – | – | – | detectable levels | 290.7 ± 45.9 pg/g | not detectable | Oc1cc(O)c2c(c1)O[C@H](c1ccc(O)c(O)c1)[C@H](O)C2 [EC, (−)-epicatechin] | < 2 % of oral dose | –

More lines, now with the values behind:

Structure (SMILES) | Increase of total (free plus methylated) C AUC0-8h ([1]; 50 to 100 mg/kg BW dose) | Increase of total (free plus methylated) C AUC0-8h ([1]; 100 to 150 mg/kg BW dose) | Detection in rat plasma [1] | AUC(0-8h) [1, 5] | Cmax [1, 5] | Tmax [1, 5] | AUC(0-8h) [1, 6] | Cmax [1, 6] | Tmax [1, 6] | AUC(0-8h) [1, 7] | Cmax [1, 7] | Tmax [1, 7] | Detection in brain tissue [2, 8] | Concentration in brain tissue [2] | Detection in brain tissue [2, 9] | Bioavailability [3] | Improvement of bioavailability by multiple dosing [4]
COc1cc([C@H]2Oc3cc(O)cc(O)c3C[C@@H]2O)ccc1O [3′-OMeC, 3′-O-methylcatechin] | – | – | – | 44.1 ± 4.9 ^a ng/mL*h | 22.7 ± 3.5 ^a ng/mL | 1.0 ± 0.0 h | 184.8 ± 45.3 ^a ng/mL*h | 75.5 ± 14.0 ^b ng/mL | 1.4 ± 0.2 h | 465.1 ± 45.1 ^b ng/mL*h | 129.3 ± 13.2 ^c ng/mL | 1.3 ± 0.2 h | Trace but not quantifiable levels | – | – | – | –
COc1cc([C@H]2Oc3cc(O)cc(O)c3C[C@H]2O)ccc1O [3′-OMeEC, 3′-O-methylepicatechin] | – | – | – | 60.5 ± 4.1 ^a ng/mL*h | 36.8 ± 5.8 ^a ng/mL | 1.0 ± 0.0 h | 266.6 ± 61.4 ^b ng/mL*h | 105.9 ± 22.0 ^a ng/mL | 1.5 ± 0.2 h | 639.5 ± 67.0 ^c ng/mL*h | 167.7 ± 19.6 ^a ng/mL | 1.3 ± 0.2 h | Trace but not quantifiable levels | – | – | – | –
O=C(O[C@@H]1Cc2c(O)cc(O)cc2O[C@@H]1c1cc(O)c(O)c(O)c1)c1cc(O)c(O)c(O)c1 [EGCG, epigallocatechin-gallate] | – | – | – | – | – | – | – | – | – | – | – | – | – | – | – | – | > 60%
O=C(O)c1cc(O)c(O)c(O)c1 [GA, Gallic acid] | – | – | – | – | – | – | – | – | – | – | – | – | detectable levels; also recorded: trace levels | – | No detectable amounts | < 2 % of oral dose | –

— article PMC2801429 (Journal of Alzheimer's disease : JAD, 2009)
